Test results as given in patent publication US9943554B2, “Compositions and methods relating to solenopsins and their uses in treating neurological disorders and enhancing physical performance” (priority 2006, dated 2018).
Values after ≈ are worked out from the molar mass of the structure shown. Like-named read-outs stand apart in the source and are kept apart here.

Tests used:
Solubility of SPI-001 = assay type: physicochemical; details: for solubility: organic solvent or mixture
Experimental: Based on chemical synthesis of SPI-001 and mass spec analysis, the compound has a molecular weight of <500. It is not a protein or peptide, but is a small molecule. SPI-001 is soluble in dimethyl sulfoxide (DMSO) and ethanol to 100 mg/ml. […] SPI-001 can be resuspended in 25% polyethylene glycol (PEG) 400 for oral delivery.

MSK1 = MSK1 (Homo sapiens, UniProt O75582); experiment: Initial studies: MSK1; assay type: biochemical
Sequence of MSK1 (O75582 whole entry, species assumed): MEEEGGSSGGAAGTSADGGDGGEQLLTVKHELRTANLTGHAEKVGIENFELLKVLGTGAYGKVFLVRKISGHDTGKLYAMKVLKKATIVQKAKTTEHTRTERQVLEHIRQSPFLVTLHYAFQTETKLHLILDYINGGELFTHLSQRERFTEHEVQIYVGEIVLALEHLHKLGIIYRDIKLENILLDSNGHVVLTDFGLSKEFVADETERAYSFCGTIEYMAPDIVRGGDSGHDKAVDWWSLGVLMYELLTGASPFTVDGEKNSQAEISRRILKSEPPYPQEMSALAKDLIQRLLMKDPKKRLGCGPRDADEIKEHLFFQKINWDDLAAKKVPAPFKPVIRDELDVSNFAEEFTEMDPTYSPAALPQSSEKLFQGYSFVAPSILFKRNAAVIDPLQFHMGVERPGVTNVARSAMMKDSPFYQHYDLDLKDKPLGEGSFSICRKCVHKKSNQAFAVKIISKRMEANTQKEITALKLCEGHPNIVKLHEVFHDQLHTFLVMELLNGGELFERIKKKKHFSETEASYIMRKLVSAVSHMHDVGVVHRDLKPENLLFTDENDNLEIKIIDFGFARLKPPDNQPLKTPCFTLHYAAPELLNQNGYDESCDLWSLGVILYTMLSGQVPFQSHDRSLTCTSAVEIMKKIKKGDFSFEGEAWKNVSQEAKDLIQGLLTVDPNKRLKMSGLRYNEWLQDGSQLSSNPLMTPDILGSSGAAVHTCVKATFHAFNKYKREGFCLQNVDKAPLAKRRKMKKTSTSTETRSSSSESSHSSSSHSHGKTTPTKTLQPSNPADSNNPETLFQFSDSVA

CamK1δ = CamK1δ (Homo sapiens, UniProt Q8IU85); experiment: Initial studies: CamK1δ; assay type: biochemical
Sequence of CamK1δ (Q8IU85 whole entry): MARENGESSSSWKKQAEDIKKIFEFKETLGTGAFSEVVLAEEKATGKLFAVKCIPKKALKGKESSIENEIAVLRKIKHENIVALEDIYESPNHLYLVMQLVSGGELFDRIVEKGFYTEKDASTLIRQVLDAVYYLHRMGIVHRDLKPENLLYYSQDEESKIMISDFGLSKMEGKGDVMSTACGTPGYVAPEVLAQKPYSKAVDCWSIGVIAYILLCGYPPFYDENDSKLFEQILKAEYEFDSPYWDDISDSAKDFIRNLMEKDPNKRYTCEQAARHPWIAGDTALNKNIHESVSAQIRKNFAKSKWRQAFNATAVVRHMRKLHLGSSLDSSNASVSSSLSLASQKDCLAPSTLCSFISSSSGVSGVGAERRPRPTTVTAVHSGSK

MAPKAPK2 pathways = experiment: Initial studies: MAPKAPK2 pathways; assay type: biochemical
Pl3 kinase = experiment: Initial studies: Pl3 kinase; assay type: biochemical
[1] = target: T1, muscarinic receptors (M1) (Homo sapiens, UniProt P11229); experiment: CEREP screen: muscarinic receptor M1; assay type: binding; design: dose or concentration left out as unconfirmed
T1 construct: CEREP
T1 sequence (P11229 1-460): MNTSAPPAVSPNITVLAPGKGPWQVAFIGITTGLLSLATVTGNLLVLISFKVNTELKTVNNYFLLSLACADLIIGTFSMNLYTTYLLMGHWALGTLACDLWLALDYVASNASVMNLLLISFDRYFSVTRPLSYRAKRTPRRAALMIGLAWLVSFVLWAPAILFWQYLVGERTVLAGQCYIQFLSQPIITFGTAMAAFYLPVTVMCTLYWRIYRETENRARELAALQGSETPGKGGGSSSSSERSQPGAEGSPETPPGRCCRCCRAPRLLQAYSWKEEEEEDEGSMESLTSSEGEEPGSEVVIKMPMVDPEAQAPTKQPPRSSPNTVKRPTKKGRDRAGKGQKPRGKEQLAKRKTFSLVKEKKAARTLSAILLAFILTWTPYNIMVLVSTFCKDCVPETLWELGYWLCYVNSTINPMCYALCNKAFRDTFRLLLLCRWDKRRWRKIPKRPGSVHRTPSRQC
Experimental: (§1) Recent CEREP screen indicated for SPI-001 ([…]) that it inhibited muscarinic receptors (M1, M2 and M3), Na+ channels and monoamine (NE, DA, and 5-HT) transporters with high affinity (˜90%).

[2] = target: T2, muscarinic receptors (M2) (Homo sapiens, UniProt P08172); experiment: CEREP screen: muscarinic receptor M2; assay type: binding; design: dose or concentration left out as unconfirmed
T2 construct: CEREP
T2 sequence (P08172 1-466): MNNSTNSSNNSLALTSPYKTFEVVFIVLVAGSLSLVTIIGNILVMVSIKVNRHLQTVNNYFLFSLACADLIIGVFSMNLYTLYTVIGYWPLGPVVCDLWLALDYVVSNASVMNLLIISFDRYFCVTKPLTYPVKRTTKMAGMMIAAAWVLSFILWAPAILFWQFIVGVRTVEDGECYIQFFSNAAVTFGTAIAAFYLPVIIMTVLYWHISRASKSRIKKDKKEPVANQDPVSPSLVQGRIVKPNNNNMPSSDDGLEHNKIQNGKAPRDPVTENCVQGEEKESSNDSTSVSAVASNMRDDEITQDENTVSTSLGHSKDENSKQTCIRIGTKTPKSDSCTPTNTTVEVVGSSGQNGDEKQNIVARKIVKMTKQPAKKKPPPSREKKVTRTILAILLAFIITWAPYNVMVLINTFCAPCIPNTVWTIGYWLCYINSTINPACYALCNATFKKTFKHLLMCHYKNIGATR
Experimental: as §1

[3] = target: T3, muscarinic receptors (M3) (Homo sapiens, UniProt P20309); experiment: CEREP screen: muscarinic receptor M3; assay type: binding; design: dose or concentration left out as unconfirmed
T3 construct: CEREP
T3 sequence (P20309 whole entry): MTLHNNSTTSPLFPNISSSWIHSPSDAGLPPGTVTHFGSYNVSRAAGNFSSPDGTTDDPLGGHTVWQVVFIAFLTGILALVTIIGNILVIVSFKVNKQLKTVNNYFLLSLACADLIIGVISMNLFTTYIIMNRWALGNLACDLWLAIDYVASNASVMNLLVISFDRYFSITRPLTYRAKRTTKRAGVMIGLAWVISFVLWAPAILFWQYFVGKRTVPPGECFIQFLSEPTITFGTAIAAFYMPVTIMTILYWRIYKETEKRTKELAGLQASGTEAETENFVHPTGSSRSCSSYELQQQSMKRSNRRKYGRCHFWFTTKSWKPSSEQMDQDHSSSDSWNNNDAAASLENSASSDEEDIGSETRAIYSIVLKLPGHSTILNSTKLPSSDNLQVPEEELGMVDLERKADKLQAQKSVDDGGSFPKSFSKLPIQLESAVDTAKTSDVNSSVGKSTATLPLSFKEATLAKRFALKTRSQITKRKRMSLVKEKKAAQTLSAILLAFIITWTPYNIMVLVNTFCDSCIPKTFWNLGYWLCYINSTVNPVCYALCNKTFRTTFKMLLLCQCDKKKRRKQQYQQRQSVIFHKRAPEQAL
Experimental: as §1

Na+ channels = experiment: CEREP screen: Na+ channels; assay type: binding; details: SPI-001 10 mM
Experimental: as §1

[4] = target: T4, monoamine (NE) transporters (Homo sapiens, UniProt P23975); experiment: CEREP screen: NE transporter; assay type: binding; design: dose or concentration left out as unconfirmed
T4 construct: CEREP
T4 sequence (P23975 whole entry): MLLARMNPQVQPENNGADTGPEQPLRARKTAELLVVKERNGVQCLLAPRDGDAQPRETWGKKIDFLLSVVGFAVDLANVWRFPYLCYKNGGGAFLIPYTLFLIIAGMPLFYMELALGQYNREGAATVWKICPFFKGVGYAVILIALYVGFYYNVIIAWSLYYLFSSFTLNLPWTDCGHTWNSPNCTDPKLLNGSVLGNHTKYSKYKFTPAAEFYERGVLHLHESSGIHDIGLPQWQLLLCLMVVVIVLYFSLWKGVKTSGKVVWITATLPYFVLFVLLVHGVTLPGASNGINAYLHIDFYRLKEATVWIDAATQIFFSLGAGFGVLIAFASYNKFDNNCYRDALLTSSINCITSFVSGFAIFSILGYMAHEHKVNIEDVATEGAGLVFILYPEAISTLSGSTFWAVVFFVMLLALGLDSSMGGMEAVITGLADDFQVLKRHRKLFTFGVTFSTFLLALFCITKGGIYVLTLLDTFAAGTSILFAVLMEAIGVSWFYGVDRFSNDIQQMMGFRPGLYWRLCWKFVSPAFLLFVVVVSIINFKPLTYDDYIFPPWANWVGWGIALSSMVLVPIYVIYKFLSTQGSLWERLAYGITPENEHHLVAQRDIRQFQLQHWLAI
Experimental: as §1

[5] = target: T5, monoamine (DA) transporters (Homo sapiens, UniProt Q01959); experiment: CEREP screen: DA transporter; assay type: binding; design: dose or concentration left out as unconfirmed
T5 construct: CEREP
T5 sequence (Q01959 whole entry): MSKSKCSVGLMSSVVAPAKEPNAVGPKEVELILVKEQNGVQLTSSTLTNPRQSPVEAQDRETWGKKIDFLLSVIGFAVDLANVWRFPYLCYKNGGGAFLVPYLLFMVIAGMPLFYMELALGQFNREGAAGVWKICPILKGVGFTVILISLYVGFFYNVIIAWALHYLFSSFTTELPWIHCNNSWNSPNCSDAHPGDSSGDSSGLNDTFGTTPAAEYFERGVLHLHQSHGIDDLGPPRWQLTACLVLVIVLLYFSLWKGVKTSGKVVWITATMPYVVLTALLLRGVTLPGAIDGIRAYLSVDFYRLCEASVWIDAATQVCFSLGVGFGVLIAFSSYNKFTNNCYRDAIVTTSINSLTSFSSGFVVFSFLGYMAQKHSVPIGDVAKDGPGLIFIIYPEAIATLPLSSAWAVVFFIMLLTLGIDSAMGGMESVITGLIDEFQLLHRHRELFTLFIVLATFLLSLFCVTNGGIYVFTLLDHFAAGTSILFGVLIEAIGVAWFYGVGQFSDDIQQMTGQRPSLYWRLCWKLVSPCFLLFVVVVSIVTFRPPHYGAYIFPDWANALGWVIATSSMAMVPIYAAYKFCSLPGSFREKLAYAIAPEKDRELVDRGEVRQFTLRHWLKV
Experimental: as §1

[6] = target: T6, monoamine (5-HT) transporters (Homo sapiens, UniProt P31645); experiment: CEREP screen: 5-HT transporter; assay type: binding; design: dose or concentration left out as unconfirmed
T6 construct: CEREP
T6 sequence (P31645 whole entry): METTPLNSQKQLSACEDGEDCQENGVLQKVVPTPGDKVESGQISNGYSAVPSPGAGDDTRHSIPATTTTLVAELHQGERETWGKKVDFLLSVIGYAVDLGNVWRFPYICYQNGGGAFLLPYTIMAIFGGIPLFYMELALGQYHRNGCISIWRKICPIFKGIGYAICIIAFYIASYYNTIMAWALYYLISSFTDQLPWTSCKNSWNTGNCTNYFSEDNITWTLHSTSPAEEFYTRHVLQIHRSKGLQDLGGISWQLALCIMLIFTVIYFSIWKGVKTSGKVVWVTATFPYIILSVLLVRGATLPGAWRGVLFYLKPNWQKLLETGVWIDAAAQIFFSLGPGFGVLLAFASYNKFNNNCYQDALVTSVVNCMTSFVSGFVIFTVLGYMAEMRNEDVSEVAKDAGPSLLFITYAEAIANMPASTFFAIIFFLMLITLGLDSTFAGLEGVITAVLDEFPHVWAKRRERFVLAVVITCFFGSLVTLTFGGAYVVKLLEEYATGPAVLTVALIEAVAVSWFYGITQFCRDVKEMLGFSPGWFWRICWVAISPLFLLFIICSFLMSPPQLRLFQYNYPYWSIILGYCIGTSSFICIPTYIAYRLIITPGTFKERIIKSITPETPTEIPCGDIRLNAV
Experimental: as §1

Aβ1-42 peptide [7] = experiment: Brain and plasma Aβ1-42 peptide levels in APP transgenic mice after single oral administration; assay type: in vivo
Text: (§2) The APP mice (male) used in these experiments were designed by microinjection of the human APP gene (with the Swedish and London mutations) into mouse eggs under the control of the platelet-derived growth factor B (PDGF-B) chain gene promoter. The mice were generated on a C57BL/6 background. Animals were housed in the Medical University of South Carolina Animal Facility under a 12:12 light:dark cycle. Animals were housed in standard non-sterile rodent microisolator cages, with filtered cage tops and housed 4 to a cage. Animals were fed ad libitum and maintained by brother sister mating. Transgenic animals were identified by PCR analysis. The mice generated from this construct develop amyloid deposits starting at 3 months of age. Animals were aged for 3 months and then maintained for 90 days and sacrificed for amyloid quantification.
(§3) FIG. 2 illustrates the effect of SPI-001 on brain Aβ1-42 peptide levels when administered at 10 mg/kg orally to the APP transgenic mice. Animals were dosed once with SPI-001 and then examined at 0, 4, 24 hours and 7 days for A[…] peptide levels (Biosource International). […] The plasma levels were opposite to the brain levels.
(§4) Animals were dosed once with SPI-001 and then examined at 0, 4, 24, 48 hours and 7 days for A[…] peptide levels. […] The plasma levels were opposite to the brain levels.

Aβ1-40 peptide [8] = experiment: Brain and plasma Aβ1-40 peptide levels in APP transgenic mice after single oral administration; assay type: in vivo; details: single 10 mg/kg oral, compared with Aβ1-42
Text: as §2, §3, §4

Aβ1-42 peptide [9] = experiment: Brain and plasma Aβ1-42 peptide levels in guinea pigs after single oral administration; assay type: in vivo; details: Guinea Pig, single 10 mg/kg oral
Experimental: (§5) Animals were dosed once with SPI-001 and then examined at 0, 4, 24, 48 hours and 7 days for AP peptide levels.

Aβ1-40 peptide [10] = experiment: Brain and plasma Aβ1-40 peptide levels in guinea pigs after single oral administration; assay type: in vivo; details: Guinea Pig; single 10 mg/kg oral; compared with Aβ1-42
Experimental: as §5

Aβ1-42 peptide [11] = experiment: Acute administration for 7 days: brain and plasma Aβ1-42 peptide levels; assay type: in vivo, APP transgenic mice; details: 10 mg/kg for 7 days in 25% PEG 400, at 7 days
Experimental: Animals were dosed once with SPI-001 and then examined at 7 days for AP peptide levels.

APP transgenic mice [12] = experiment: Morris water maze test in APP mice treated for 90 days; assay type: in vivo; details: 10 mg/kg orally in 25% PEG daily for 3 months (90 days)
Experimental: Morris water-maze testing. All mice were tested once in the Morris water maze test at the end of the experiment. Mice were trained in a 1.2 m open field water maze. The pool was filled to a depth of 30 cm with water and maintained at 25° C. The escape platform (10 cm square) was placed 1 cm below the surface of the water. During the trials, the platform was removed from the pool. The cued test was carried out in the pool surrounded with white curtains to hide any extra-maze cues. All animals underwent non-spatial pretraining (NSP) for three consecutive days. These trials were to prepare the animals for the final behavioral test to determine the retention of memory to find the platform. These trials were not recorded (for training purposes only). For the training and learning studies, the curtains were removed to add extra-maze cues (this allows for the identification of animals with swimming impairments). On day 1, the mice were placed on the hidden platform for 20 seconds (trial 1), for trials 2-3 animals were released in the water at a distance of 10 cm from the cued-platform or hidden platform (trial 4) and allowed to swim to the platform. […]
SPI-001 was administered to APP transgenic mice at 10 mg/kg for 3 months to determine the effect upon Aβ peptide and amyloid load. […] Animals were analyzed for behavioral changes associated with drug treatment (FIG. 7). […]

amyloid load = experiment: Amyloid (plaque) load in the brain after repetitive administration for 3 months; assay type: in vivo; details: APP transgenic mice; 10 mg/kg orally daily for 3 months; compared to control animals
Text: as §2
(§6) SPI-001 was administered to APP transgenic mice at 10 mg/kg for 3 months to determine the effect upon Aβ peptide and amyloid load. Animals were administered SPI-001 orally in 25% PEG daily and examined for abnormal pathology. […] Animals were analyzed for behavioral changes associated with drug treatment (FIG. 7). […] FIG. 8 illustrates the plaque load in the brains of control and SPI-001 treated animals.

Aβ peptide = Aβ peptide levels in the brain after repetitive administration for 3 months; assay type: in vivo; details: APP transgenic mice; 10 mg/kg orally daily for 3 months; compared to control animals
Text: as §2, §6

APP transgenic mice [13] = experiment: Examination for abnormal pathology after repetitive administration for 3 months; assay type: in vivo; details: 10 mg/kg orally daily for 3 months
Experimental: as §6

[14] = PK profile in plasma and brain of APP transgenic animals; assay type: in vivo, APP transgenic mice; details: orally 10 mg/kg
Experimental: For PK profile, the APP transgenic animals were administered SPI-001, and blood samples and brain tissue were collected and subjected to drug analysis.

C57BL/6 mice = experiment: Selectivity and safety profile in C57BL/6 mice; assay type: in vivo
Experimental: Animals (C57BL/6 mice, 5 mice per group) were treated with SPI-001 at 0, 4, 40, and 400 mg/kg in 25% PEG 400 with a single dose and examined 14 days later.

[15] = 400 mg/kg in 25% PEG 400 for 14 days
[16] = C57BL/6 mice, single dose 4, 40 and 400 mg/kg in 25% PEG 400, examined 14 days later

CCCCCCCCCCC[C@H]1CCC[C@H](C)N1 (relative stereo) [SPI-001, trans-2-methyl 6-n-undecylpiperidine]
solubility (Solubility of SPI-001; dimethyl sulfoxide (DMSO), read-out: solubility in dimethyl sulfoxide (DMSO)): 100 mg/mL (≈ 395 mM) | solubility (Solubility of SPI-001; ethanol, read-out: solubility in ethanol): 100 mg/mL (≈ 395 mM) | solubility in water (Solubility of SPI-001; water): slightly soluble | effect on MSK1 (MSK1): inhibits | effect on CamK1δ (CamK1δ): inhibits | effect on MAPKAPK2 pathways (MAPKAPK2 pathways): activating | effect on Pl3 kinase (Pl3 kinase): inhibiting | inhibition [1]: ~90% | inhibition [2]: ~90% | inhibition [3]: ~90% | inhibition of Na+ channels (Na+ channels): ~90% | inhibition [4]: ~90% | inhibition [5]: ~90% | inhibition [6]: ~90% | brain Aβ1-42 peptide levels (Aβ1-42 peptide [7]; single 10 mg/kg oral in 25% PEG 400, 4 hr): decreased | plasma Aβ1-42 peptide levels (Aβ1-42 peptide [7]; single 10 mg/kg oral, 4 hr): increased | brain Aβ1-42 peptide levels (Aβ1-42 peptide [7]; single 10 mg/kg oral, 24 hours): continued to decrease | plasma Aβ1-42 peptide levels (Aβ1-42 peptide [7]; single 10 mg/kg oral, 24 hours): continued to increase | brain Aβ1-42 peptide levels (Aβ1-42 peptide [7]; single 10 mg/kg oral, 48 hours): returned to control levels | plasma Aβ1-42 peptide levels (Aβ1-42 peptide [7]; single 10 mg/kg oral, 48 hours): returned to control levels | brain Aβ1-42 peptide levels (Aβ1-42 peptide [7]; single 10 mg/kg oral, 7 days): returned to control levels | plasma Aβ1-42 peptide levels (Aβ1-42 peptide [7]; single 10 mg/kg oral, 7 days): returned to control levels | brain Aβ1-40 peptide levels (Aβ1-40 peptide [8]): same levels of decrease in the brain | plasma Aβ1-40 peptide levels (Aβ1-40 peptide [8]): increase in the plasma | brain Aβ1-42 peptide levels (Aβ1-42 peptide [9]; 4 hr): decreased | plasma Aβ1-42 peptide levels (Aβ1-42 peptide [9]; 4 hr): increased | brain Aβ1-42 peptide levels (Aβ1-42 peptide [9]; 24 hours): continued to decrease | plasma Aβ1-42 peptide levels (Aβ1-42 peptide [9]; 24 hours): continued to increase | brain Aβ1-42 peptide levels (Aβ1-42 peptide [9]; 48 hours): returned to control levels | plasma Aβ1-42 peptide levels (Aβ1-42 peptide [9]; 48 hours): returned to control levels | brain Aβ1-42 peptide levels (Aβ1-42 peptide [9]; 7 days): returned to control levels | plasma Aβ1-42 peptide levels (Aβ1-42 peptide [9]; 7 days): returned to control levels | brain Aβ1-40 peptide levels (Aβ1-40 peptide [10]): same levels of decrease in the brain | plasma Aβ1-40 peptide levels (Aβ1-40 peptide [10]): increase in the plasma | brain Aβ1-42 peptide levels (Aβ1-42 peptide [11]; compared to control animals given 25% PEG only): decreased | plasma Aβ1-42 peptide levels (Aβ1-42 peptide [11]; compared to control levels): increased | behavior in the Morris Water Maze (APP transgenic mice [12]): improvement in behavior | amyloid load (amyloid load): significantly reduced | Aβ peptide levels (Aβ peptide): significantly reduced | systemic pathological features (liver, kidney, heart, lungs, intestine) (APP transgenic mice [13]): did not show any signs of systemic pathological features | SPI-001 levels in brain [14]: increased significantly | SPI-001 levels in plasma [14]: increased significantly | time SPI-001 levels were maintained in brain [14]: approximately 24 hours | time SPI-001 levels were maintained in plasma [14]: approximately 24 hours | course of body weight changes (C57BL/6 mice; [15]): stopped by 14 days and reversed | gross behavioral deficits (C57BL/6 mice; [15]): no gross behavioral deficits | histological abnormalities in the tissues examined (C57BL/6 mice; [15]): no histological abnormalities | body weight over the 14 days (C57BL/6 mice; 400 mg/kg in 25% PEG 400 for 14 days, 25% PEG animals showed a similar profile): slight decrease in body weight | gross behavioral deficits upon visual inspection (daily) (C57BL/6 mice; [16]): no gross behavioral deficits | histological analysis of tissues (brain, liver, kidney, heart, intestine, lungs) (C57BL/6 mice; [16]): did not show any abnormal structures
